How the values were obtained:
HeLa [1] = assay: Cytotoxicity against Homo sapiens (human) HeLa cells assessed as metabolic active cells after 24 hr by MTT assay; format: functional, cell-based
[2] = n-octanol-water partition coefficient, log P of the compound by shake-flask method; format: physicochemical
HeLa [3] = assay: Cytotoxicity against Homo sapiens (human) HeLa cells assessed as cell viability after 24 hr by crystal violet staining; format: functional, cell-based

| logP [2] | SMILES | IC50 (HeLa [1]) | IC50 (HeLa [3]) |
| --- | --- | --- | --- |
| -0.027 | COC(=O)CN1Cc2ccccc2C1 | 8.23 mM | 3.65 mM |
| 0.065 | COC(=O)[C@H](CC(C)C)N1Cc2ccccc2C1 | 2.56 mM | 3.16 mM |
| 1.35 | COC(=O)[C@H](c1ccccc1)N1Cc2ccccc2C1 | 8.25 mM | 5.32 mM |
| 1.45 | COC(=O)[C@H](Cc1c[nH]c2ccccc12)N1Cc2ccccc2C1 | 9.71 mM | 8.44 mM |
| -0.229 | O=C(O)CN1Cc2ccccc2C1 | 8.74 mM | 5.62 mM |
| 0.114 | CC(C)C[C@@H](C(=O)O)N1Cc2ccccc2C1 | 4.56 mM | 4.3 mM |
| -0.31 | O=C(O)[C@H](c1ccccc1)N1Cc2ccccc2C1 | 9.48 mM | 7.07 mM |
| 0.347 | O=C(O)[C@H](Cc1c[nH]c2ccccc12)N1Cc2ccccc2C1 | 7.6 mM | 8.82 mM |

Reference: ChEMBL document CHEMBL3046141, “Partition coefficient determination of a series of isoindolines-2-substituted and its correlation with their antiproliferative activity on HeLa cells” (Med Chem Res, 2013)
